Data from ChEMBL document CHEMBL1201862, “PubChem BioAssay data set” (2004).
The source made the active and inactive calls.

Legend:
[1] = biological target: T1, Heat shock factor protein 1 (Mus musculus, UniProt P38532); experiment: HSF1 potentiators in luciferase reporter cells, confirmation, cell-based, NIH3T3, luminescence, dose retest (AID 435004); type: functional;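 note: stress induced by proteasome inhibitor MG132 added 30 min after compound; luciferase reporter driven by HSF1 response element in NIH3T3 cells; actives raise luminescence as potentiators of the MG132 stress response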
T1 sequence (P38532 whole entry): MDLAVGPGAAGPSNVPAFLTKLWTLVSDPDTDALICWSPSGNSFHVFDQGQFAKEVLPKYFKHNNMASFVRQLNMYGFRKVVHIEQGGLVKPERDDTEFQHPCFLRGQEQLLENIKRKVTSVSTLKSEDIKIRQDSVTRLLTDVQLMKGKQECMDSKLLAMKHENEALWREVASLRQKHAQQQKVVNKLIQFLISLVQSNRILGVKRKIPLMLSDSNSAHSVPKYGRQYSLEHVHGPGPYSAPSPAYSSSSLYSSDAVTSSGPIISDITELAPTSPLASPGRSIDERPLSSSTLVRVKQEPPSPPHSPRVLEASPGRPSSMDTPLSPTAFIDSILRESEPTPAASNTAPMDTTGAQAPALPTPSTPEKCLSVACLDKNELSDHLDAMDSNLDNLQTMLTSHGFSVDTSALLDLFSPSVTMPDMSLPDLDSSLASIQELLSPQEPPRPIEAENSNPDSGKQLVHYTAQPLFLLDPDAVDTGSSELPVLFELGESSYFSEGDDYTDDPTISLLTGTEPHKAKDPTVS

[2] = biological target: T2, Protein RecA (Mycobacterium tuberculosis, UniProt P9WHJ3); experiment: Fluorescence Cell-Free Homogeneous Dose Retest to Identify Inhibitors of RecA-Intein Splicing Activity. [Related pubchem assays (depositor defined):AID2097, AID2223, AID489010, AID492950]; type: functional
T2 sequence (P9WHJ3 whole entry): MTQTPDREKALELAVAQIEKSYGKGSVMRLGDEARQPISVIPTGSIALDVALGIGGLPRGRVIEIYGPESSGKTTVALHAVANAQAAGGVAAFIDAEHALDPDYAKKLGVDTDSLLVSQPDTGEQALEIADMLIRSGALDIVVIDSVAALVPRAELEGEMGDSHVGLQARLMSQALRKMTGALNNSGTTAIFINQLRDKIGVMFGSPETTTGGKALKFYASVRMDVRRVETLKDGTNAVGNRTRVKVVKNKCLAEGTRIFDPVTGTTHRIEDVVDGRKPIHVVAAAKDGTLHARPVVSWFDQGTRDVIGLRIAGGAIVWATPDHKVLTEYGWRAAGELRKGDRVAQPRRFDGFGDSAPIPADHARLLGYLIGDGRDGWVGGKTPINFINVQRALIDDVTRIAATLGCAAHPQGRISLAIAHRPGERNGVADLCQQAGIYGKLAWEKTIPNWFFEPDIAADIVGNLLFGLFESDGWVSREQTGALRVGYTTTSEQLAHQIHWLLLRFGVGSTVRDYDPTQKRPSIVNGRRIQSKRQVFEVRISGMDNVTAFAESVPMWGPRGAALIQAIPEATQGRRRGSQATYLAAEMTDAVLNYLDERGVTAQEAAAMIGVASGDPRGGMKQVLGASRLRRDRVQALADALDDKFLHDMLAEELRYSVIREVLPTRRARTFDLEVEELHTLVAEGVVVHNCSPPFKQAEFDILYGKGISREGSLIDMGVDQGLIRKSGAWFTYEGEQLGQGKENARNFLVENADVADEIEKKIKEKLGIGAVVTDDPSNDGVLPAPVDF

[3] = biological target: T3, Mannose-6-phosphate isomerase (Homo sapiens, UniProt P34949); experiment: human PMI inhibitors, high substrate, primary screen, biochemical, fluorescence intensity, high mannose 6-phosphate (AID 1220)
T3 sequence (P34949 whole entry): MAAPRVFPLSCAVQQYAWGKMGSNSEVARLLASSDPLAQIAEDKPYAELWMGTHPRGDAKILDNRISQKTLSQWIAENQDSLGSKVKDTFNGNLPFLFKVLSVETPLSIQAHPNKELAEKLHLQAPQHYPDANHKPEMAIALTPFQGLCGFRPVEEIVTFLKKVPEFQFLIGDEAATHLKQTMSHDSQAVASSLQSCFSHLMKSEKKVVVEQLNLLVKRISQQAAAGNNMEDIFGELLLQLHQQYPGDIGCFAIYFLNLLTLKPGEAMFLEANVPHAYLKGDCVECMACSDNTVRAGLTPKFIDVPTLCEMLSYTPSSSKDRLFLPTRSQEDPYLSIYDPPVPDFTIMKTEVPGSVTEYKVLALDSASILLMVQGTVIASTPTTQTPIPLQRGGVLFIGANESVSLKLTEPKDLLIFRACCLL

[4] = biological target: T4, Adenosylmethionine-8-amino-7-oxononanoate aminotransferase (Mycobacterium tuberculosis, UniProt P9WQ81); experiment: Mycobacterium tuberculosis BioA enzyme inhibitor Measured in Biochemical System Using Plate Reader - 2163-02_Inhibitor_Dose_CherryPick_Activity.; type: functional, Mycobacterium tuberculosis UT205
T4 sequence (P9WQ81 whole entry): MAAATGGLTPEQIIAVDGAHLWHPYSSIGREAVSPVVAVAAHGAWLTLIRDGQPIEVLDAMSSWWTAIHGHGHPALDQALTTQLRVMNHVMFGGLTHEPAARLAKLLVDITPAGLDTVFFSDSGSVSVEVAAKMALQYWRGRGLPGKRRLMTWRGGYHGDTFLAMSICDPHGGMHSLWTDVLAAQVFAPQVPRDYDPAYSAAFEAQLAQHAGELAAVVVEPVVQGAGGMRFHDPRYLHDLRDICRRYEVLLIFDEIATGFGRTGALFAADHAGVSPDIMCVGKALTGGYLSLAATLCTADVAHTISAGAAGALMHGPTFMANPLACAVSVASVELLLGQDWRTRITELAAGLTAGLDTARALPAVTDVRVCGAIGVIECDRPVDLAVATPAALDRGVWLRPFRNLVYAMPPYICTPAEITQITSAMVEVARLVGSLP

[5] = biological target: Induced myeloid leukemia cell differentiation protein Mcl-1 (Homo sapiens, UniProt Q07820); type: functional
[6] = biological target: Melanocortin receptor 4 (Homo sapiens, UniProt P32245); type: functional, cell-based;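 note: Cell-based assay with luminescence read-out, confirmatory dose-response testing for agonist activity of biased ligands at MC4R; human U2OS cells with tagged receptor and beta-arrestin; potency of agonists that increase receptor coupling to beta-arrestin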
[7] = biological target: T5, Endoribonuclease toxin MazF (Escherichia coli K-12, UniProt P0AE70); experiment: MazF toxin RNase activators, dose response, biochemical, fluorescence, single-stranded RNA substrate, uHTS hits (AID 588481); type: functional
T5 sequence (P0AE70 whole entry): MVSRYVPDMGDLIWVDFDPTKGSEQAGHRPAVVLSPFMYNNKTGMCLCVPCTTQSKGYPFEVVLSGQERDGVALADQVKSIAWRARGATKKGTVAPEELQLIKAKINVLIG

[8] = biological target: T5, Endoribonuclease toxin MazF; experiment: fluorescent RNA oligo signal without MazF, dose response, counter-screen for MazEF activator project, biochemical, fluorescence, single-stranded RNase substrate (AID 588502); type: functional
[9] = growth suppression of beta-catenin-knockout colon cells, dose response, cell-based, HCT116, human colon tumor (AID 1045); type: functional;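 note: HCT116 colon tumor cells with beta catenin knocked out; cells exposed to compound for 60 hours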
[10] = growth suppression of PTEN-null colon cells, dose response, cell-based, HCT116 PTEN knockout (AID 1047); type: functional;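 note: HCT116 colon tumor cells with PTEN knocked out; cells exposed to compound for 60 hours before readout; potency for loss of cell viability measured by luminescence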
[11] = biological target: Troponin, cardiac muscle (Homo sapiens, UniProt P19429+P45379+P63316); experiment: Fluorescence-based biochemical high throughput dose response assay for activators of the calcium sensitivity of cardiac Regulated Thin Filaments (RTF). [Related pubchem assays (depositor defined):AID493008, AID493018, AID504382, AID504383]; type: protein-complex assay
[12] = MC4R antagonists, dose response, counter-screen for LGR2 antagonist project, cell-based, plate reader, cherry pick (AID 743444); type: functional;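 note: transfected HEK 293 cells stimulated with alpha-MSH peptide; potency of inhibitors of the alpha-MSH evoked signal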
[13] = LGR2 antagonists, dose response, cell-based, HEK293, CRE-luciferase reporter, cherry pick, set 2 (AID 743343); type: functional;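 note: transfected cells were stimulated with diluted bursicon conditioned medium after compound addition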
[14] = A549 cell cytotoxicity, dose response, cytotoxicity control, plate reader, cherry-pick, antagonist series (AID 743412); type: functional, cell-based
[15] = biological target: Protein Wnt-3a (Mus musculus, UniProt P27467); experiment: Wnt3a-driven reporter signaling inhibition, dose response, selectivity assay for Gli-SUFU antagonist project, Wnt-LIGHT cells, luminescence (AID 651570); type: functional; settings: read-out: IC50_Mean;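 note: Wnt-LIGHT reporter cells stimulated with conditioned medium from Wnt3a-producing cells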
[16] = control 3'UTR Renilla luciferase suppression, dose response, counter-screen for Shn3 inhibitor project, cell-based, Clone20-Shn3RL, cherry-picked (AID 624133); type: functional
[17] = HepG2 cell cytotoxicity, dose response, cytotoxicity control for Shn3 inhibitor project, CellTiter-Glo, cherry-picked (AID 624134); type: functional, cell-based
[18] = Shn3 3'UTR reporter inhibitors, dose response, cell-based, Clone20 osteoblasts, firefly luciferase, cherry-picked (AID 624132); type: functional;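 note: firefly luciferase luminescence from reporter carrying the Shn3 3'UTR in osteoblasts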
[19] = cytotoxicity in HEK-293T cells, dose response, cytotoxicity control for TCR NF-kB inhibitor project, luminescence, T-cell screen hits (AID 489026); type: functional, cell-based;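 note: cells exposed to compound about 14 hours before the viability readout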
[20] = test system: INS1; experiment: beta cell apoptosis inhibitors, cytokine rescue, dose response, luminescence, retest (AID 449756); type: functional, cell-based; settings: Rattus norvegicus;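 note: cell death triggered by IL-1 beta plus TNF-alpha plus IFN-gamma mixture; protective hits raise ATP signal compared with cytokine alone wells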
[21] = biological target: Beta-galactosidase (Escherichia coli, UniProt Q8VNN2); experiment: Dose response counterscreen for EBI2 assay utilizing the enzyme, b-galactosidase.; type: functional
[22] = cells; type: functional, cell-based
[23] = cells; type: functional, cell-based; remark: listed apart in the source
[24] = cytotoxicity in OVCAR8 ovarian cancer cells, dose response, PAX8 project, cell-based, plate reader, dry powder samples (AID 743197); type: functional; settings: OVCAR-8
[25] = A2780 ovarian cancer cell cytotoxicity, dose response, cytotoxicity control, plate reader, dry powder samples (AID 743046); type: functional, cell-based
[26] = biological target: Paired box protein Pax-8 (Homo sapiens, UniProt Q06710); experiment: inhibitors of PAX8-driven TPO luciferase reporter, dose response, RMG-I cells, cherry-pick (AID 687027); type: functional, cell-based;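 note: luciferase reporter driven by Pax8 target thyroperoxidase promoter measured by SteadyGlo luminescence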
[27] = NIH:OVCAR-3 ovarian cancer cell cytotoxicity, dose response, PAX8 inhibitor project, plate reader, dry powder samples (AID 743044); type: functional, cell-based
[28] = IGROV1 ovarian cancer cell cytotoxicity, dose response, PAX8 inhibitor project, plate reader, dry powder samples (AID 743043); type: functional, cell-based; settings: IGROV-1

CCCCn1c(NC(=O)c2ccco2)c(S(=O)(=O)c2ccc(C)cc2)c2nc3ccccc3nc21
EC50 [1]: 152 µM (active)
EC50 [2]: > 380 µM (inactive)
IC50 [3]: > 50 µM (not active)

COc1ccc(CCNC(=O)c2cnc3n(c2=O)CCS3)cc1OC
AC50 [4]: 13.7 µM (active)

CSc1nc(N(C)CCO)c2sc3nc(-c4ccco4)c4c(c3c2n1)CCC4
IC50 [5]: 5.59 µM (active)

COc1cc(-c2nc3ccccc3nc2-c2ccc(O)c(OC)c2)ccc1O
AC50 [4]: 3.99 µM (active)

N#C/C(=C\c1ccc(-c2ccc(F)cc2)o1)C(=O)Nc1nc(-c2cccs2)cs1
EC50 [6]: > 89.2 µM (inactive)
EC50 [7]: > 99 µM (inactive)
EC50 [8]: 27.2 µM (inactive)
EC50 [9]: 25.6 µM (active)
EC50 [10]: 30 µM (active)
EC50 [11]: > 71.5 µM (inactive)

CCOc1ccc(NC(S)=Nc2cccc3cnccc23)cc1
IC50 [3]: > 50 µM (not active)

CCCCc1ccc(NC(=O)c2cnccn2)cc1
AC50 [12]: 9.42 µM (active)
AC50 [13]: 12.4 µM (active)
AC50 [14]: > 52 µM (inactive)

COc1ccccc1-c1c(-c2ccc(O)cc2O)n[nH]c1C(F)(F)F
IC50 [15]: 2.07 µM (active)

CN(Cc1nccs1)C(=O)c1cc(COc2cccc3cnccc23)on1
AC50 [16]: 1.2 µM (active)
AC50 [17]: 48.5 µM (active)
IC50 [15]: 1.3 µM (active)
AC50 [18]: 2.77 µM (active)

CCCCc1ccc(NC(=O)C(=O)NCCN2CCN(Cc3ccc([N+](=O)[O-])cc3)CC2)cc1
AC50 [16]: 4.92 µM (active)
AC50 [17]: 64.2 µM (active)
IC50 [19]: > 80 µM (inactive)
IC50 [15]: 1.8 µM (active)
AC50 [18]: 1.13 µM (active)

CCN(CC)c1ccc(NC(=S)Nc2ccc(F)cc2)cc1
IC50 [3]: > 50 µM (not active)

Cc1sc2ncnc(N3CCN(S(=O)(=O)c4ccc(C(C)(C)C)cc4)CC3)c2c1C
IC50 [15]: 6.86 µM (active)
AC50 [20]: 3.23 µM (active)

O=[N+]([O-])c1ccc(NN=Cc2cc(Br)ccc2O)nc1
IC50 [21]: 39.2 µM (active)

COC(=O)c1ccc(/N=c2\sc(C(=O)OC)cc(=O)n2C)cc1
IC50 [21]: > 80 µM (inactive)

COC(=O)c1c(C(=O)OC)c(-c2cccc(F)c2)n2c1C[S+]([O-])C2 (configuration not stated)
AC50 [4]: 0.659 µM (active)

O=C(/C=C/c1ccc(Cl)cc1)N1CCN(CCN2C(=O)c3cccc4cccc(c34)C2=O)CC1
IC50 [21]: > 80 µM (inactive)

COc1ccc(-c2nc3ccc(Cl)cn3c2Cc2ccccc2)cc1OC
AC50 [4]: 10.6 µM (active)

CCOC(=O)[C@]12CCC=C1N(CCC1=CCCCC1)C(=O)[C@H](CC(=O)NCCc1ccccc1OC)C2
EC50 [22]: > 29.9 µM (inactive)
IC50 [23]: > 29.9 µM (inactive)

C[C@@H]1CCCCO[C@@H](CN(C)S(=O)(=O)c2ccc(Cl)cc2)[C@H](C)CN([C@H](C)CO)C(=O)c2cc(NS(=O)(=O)c3ccc(Cl)cc3)ccc2O1
AC50 [24]: 19.5 µM (active)
AC50 [25]: 55.8 µM (active)
AC50 [26]: 3.27 µM (active)
AC50 [27]: 17.7 µM (active)
AC50 [28]: 21.7 µM (active)

C[C@@H]1CN([C@H](C)CO)C(=O)c2cc(NS(=O)(=O)c3cccs3)ccc2O[C@@H](C)CCCCO[C@@H]1CN(C)Cc1ccc(Cl)c(Cl)c1
AC50 [24]: 20.5 µM (active)
AC50 [25]: 27.8 µM (active)
AC50 [26]: 4.91 µM (active)
AC50 [27]: 16.9 µM (active)
AC50 [28]: 26.5 µM (active)

COc1ccc(/C=N/N=C/c2cnc(O)c(C#N)c2Nc2ccccc2)cc1
IC50 [21]: > 80 µM (inactive)
